The source of these data is US20030158188A1, “Fused azabicyclic compounds that inhibit vanilloid receptor subtype 1 (VR1) receptor” (priority 2002, published 2003).

Structures can show the parent of a compound that is named as a salt.

For orientation: melting point means the temperature of the solid-liquid transition. `O=C(NCc1ccc(Br)cc1)Nc1cccc2[nH]ncc12` (as salt: hydrochloride) [Example 89, N-(4-bromobenzyl)-N′-1H-indazol-4-ylurea] yielded a melting point of 126 °C.

`O=C(NCc1ccc(Br)cc1)Nc1cccc2[nH]ccc12` [Example 78, N-(4-bromobenzyl)-N′-1H-indol-4-ylurea] had a melting point of 198 °C.

`O=C(NCc1ccc(Cl)c(Cl)c1)Nc1cccc2[nH]ccc12` [Example 79, N-(3,4-dichlorobenzyl)-N′-1H-indol-4-ylurea]: the melting point worked out at 201 °C.

Regarding `O=C(NCc1ccc(C(F)(F)F)cc1)Nc1cccc2[nH]ccc12` [Example 80, N-1H-indol-4-yl-N′-[4-(trifluoromethyl)benzyl]urea], the melting point is 178 °C.

In turn, `O=C(NCc1ccc(OC(F)(F)F)cc1)Nc1cccc2[nH]ccc12` [Example 81, N-1H-indol-4-yl-N′-[4-(trifluoromethoxy)benzyl]urea] showed a melting point of 177 °C.

Compound `O=C(NCc1ccc(C(F)(F)F)c(F)c1)Nc1cccc2[nH]ccc12` [Example 82, N-[3-fluoro-4-(trifluoromethyl)benzyl]-N′-1H-indol-4-ylurea] displayed a melting point of 198 °C.

The compound `O=C(NCc1ccc(Cl)c(C(F)(F)F)c1)Nc1cccc2[nH]ccc12` [Example 83, 1-(4-Chloro-3-trifluoromethyl-benzyl)-3-(1H-indol-4-yl)-urea] came in with a melting point of 197 °C.

In the case of `O=C(NCCc1ccc(Cl)cc1Cl)Nc1cccc2[nH]ccc12` [Example 85, N-[2-(2,4-dichlorophenyl)ethyl]-N′-1H-indol-4-ylurea], the melting point was 170 °C.

For the compound `Cc1[nH]c2cccc(NC(=O)NCc3ccc(Br)cc3)c2c1C` [Example 88, N-(4-bromobenzyl)-N′-(2,3-dimethyl-1H-indol-4-yl)urea], the melting point came to 190 °C.
